Measurements reported in ChEMBL document CHEMBL1123622, “Quantitative structure-activity relationships of the bitter thresholds of amino acids, peptides, and their derivatives” (J Med Chem, 1987).
Non-standard residues stand in square brackets, D forms with d. Residues, ends and D or L forms follow the SMILES beside them.

Assay: Bitter threshold value; B denotes 'bitter'
Assay type: functional

| SMILES | Log 1/T |
| --- | --- |
| CC(C)C[C@H](NC(=O)[C@H](C)NC(=O)CN)C(=O)O (H-Gly-Ala-Leu-OH) | Bitter |
| CC(C)C[C@H](NC(=O)[C@H](C)NC(=O)[C@H](C)N)C(=O)O (H-Ala-Ala-Leu-OH) | Bitter |
| CC(C)C[C@@H](N)C(=O)NCC(=O)O (H-[dL]-Gly-OH) | Bitter |
| CC[C@H](C)[C@H](NC(=O)[C@H](C)N)C(=O)N[C@@H](C)C(=O)O (H-Ala-Ile-Ala-OH) | Bitter |

Assay: Bitter threshold value; NI denotes'Not identifiable (Citrous or fruity taste)'
Assay type: functional

| SMILES | Log 1/T |
| --- | --- |
| CC(C)[C@H](NC(=O)[C@@H]1CCCN1)C(=O)O (H-Pro-Val-OH) | Not identifiable |
| O=C(O)CNC(=O)[C@@H]1CCCN1 (H-Pro-Gly-OH) | Not identifiable |
